# According to patent US7897588B2, “Agents and methods for enhancing bone formation” (The Regents of the University of California, priority 2003, dated 2011):
# Key:
# [1] = tested on: M2-10B4 mouse marrow stromal cell line; experiment: Matrix mineralization in M2 cells (von Kossa staining, 45Ca incorporation assay); format: cell-based
# Protocol: Cells: M2-10B4 mouse marrow stromal cell line obtained from American Type Culture Collection (ATCC, Rockville, Md., U.S.A.) was derived from bone marrow stromal cells of a (C57BL/6J×C3H/HeJ) F1 mouse, and support human and murine myelopoiesis in long-term cultures (as per ATCC) and have the ability to differentiate into osteoblastic and adipocytic cells. Unless specified, these cells were cultured in RPMI 1640 containing 10% heat-inactivated FBS, and supplemented with 1 mM sodium pyruvate, 100 U/ml penicillin, and 100 […] (all from Irvine Scientific).
# (§1) Von Kossa and oil red O staining—Matrix mineralization in cell monolayers was detected by silver nitrate staining as previously described. Oil red O staining for detection of adipocytes was performed as previously described.
# ^45Ca incorporation assay—Matrix mineralization in cell monolayers was quantified using the ^45Ca incorporation assay as previously described.
# M2 cells at confluence were treated in osteogenic medium with control vehicle or 5 μM oxysterols, alone or in combination as indicated. After 14 days, mineralization was identified by a von Kossa staining, which appears black. FIG. 3C is a depiction of von Kossa staining of M2 cells exposed to various conditions.
# M2 cells were treated with control vehicle (C) or a combination of 22R and 20S oxysterols at increasing concentrations. After 14 days, matrix mineralization in cultures was quantified using a ^45Ca incorporation assay. […] FIG. 3D is a bar graph depicting the effect of a combination of oxysterols at various doses on calcium incorporation in M2 cells.
# Next, a combination of 22R and 20S oxysterols (RS, 2.5 μM each) were added in the presence or absence of SC as indicated. After 3 days, ALP activity was measured as described earlier. […] (B) M2 cells were treated as described in (A) and after 10 days matrix mineralization in cultures was quantified by a ^45Ca incorporation assay as described earlier. Results from a representative of three experiments are shown, reported as the mean±SD of quadruplicate determinations, normalized to protein concentration. (C) M2 cells were pretreated with 20 μM SC for 4 hours, followed by the addition of RS in the presence or absence of SC as described above. After 8 days, total RNA was isolated and analyzed for osteocalcin (Osc) and 18S rRNA expression by Northern blotting as previously described. Data from densitometric analysis of the Northern blot is shown in (D) as the average of duplicate samples, normalized to 18S rRNA. (E) M2 cells at confluence were pretreated for 2 hours with control vehicle (C), or PLA2 inhibitors ACA (25 μM) and AACOCF3 (AAC, 20 μM), in osteogenic medium. Next, a combination of 22R and 20S oxysterols (RS, 2.5 μM) was added in the presence or absence of the inhibitors as indicated. After 3 days, ALP activity was measured as previously described. Data from a representative of three experiments are shown, reported as the mean±SD of quadruplicate determinations, normalized to protein concentration (p<0.01 for RS vs. RS+ACA and RS+AAC). (F) M2 cells were treated as described in (E). After 10 days, matrix minerliazation in cultures was quantified using a ^45Ca incorporation assay as previously described. Results from a representative of three experiments are shown, reported as the mean of quadruplicate determinations±SD, normalized to protein concentration (p<0.01 for RS vs. RS+ACA and RS+AAC).
# (A) M2 cells at confluence were pretreated for four hours with RPMI containing 1% FBS, followed by treatment with control vehicle or 5 μM 20S oxysterol for 1, 4, or 8 hours. Next total cell extracts were prepared and analyzed for levels of native or phosphorylated ERK (pERK) using specific antibodies as previously described.
# M2 cells = experiment: Adipogenesis of troglitazone-treated M2 cells (oil Red O staining, adipocyte count); format: cell-based, mouse; settings: M2 cells treated with Tro 10 μM, oxysterols 10 μM, 10 days
# Protocol: as §1
# Test 1: M2 cells at 90% confluence were treated with vehicle (C), PPAR-γ activator, troglitazone 10 uM (Tro), alone or in combination with 10 μM oxysterols 20S-, 22R-, or 25S-hydroxycholesterol. After 8 days, adipocytes were identified by oil Red 0 staining and quantified by counting under a phase contrast microscope. FIG. 6A is a bar graph depicting the effect of oxysterols on reducing adipogenesis of MSC.
# Test 2: (A) M2 cells at confluence were treated in RPMI containing 10% FBS with control vehicle or 10 μM troglitazone (Tro) in the absence or presence of 10 μM 20S or 22S oxysterols. After 10 days, adipocytes were visualized by oil Red O staining and quantified by light microscopy, shown in (B). Data from a representative of four experiments are shown, reported as the mean SD of quadruplicate determinations (p<0.001 for Tro vs. Tro+20S and Tro+22S). (C) M2 cells were treated at confluence with 10 μM Tro, alone or in combination with 10 μM 20S oxysterol. After 10 days, total RNA was isolated and analyzed for lipoprotein lipase (LPL), adipocyte P2 gene (aP2) or 18S rRNA expression by Northern blotting as described (Ref). Data from densitometric analysis of the Northern blot is shown in (D) as the average of duplicate samples, normalized to 18S rRNA.
# [2] = individual oxysterols 0.5-10 μM or combinations, up to 14 days
SMILES,"induction of mineralization [1, 2]",inhibition of adipogenesis (M2 cells),"induction of mineralization ([1]; TO treatment, after 10 days)"
"CC(C)CC[C@H](O)[C@@H](C)[C@H]1CC[C@H]2[C@@H]3CC=C4C[C@@H](O)CC[C@]4(C)[C@H]3CC[C@]12C [22S, 22(S)-hydroxycholesterol]",unable to induce,inhibited adipogenesis,
"O=S(=O)(c1ccccc1)N(CC(F)(F)F)c1ccc(C(O)(C(F)(F)F)C(F)(F)F)cc1 [TO, TO-901317]",,,did not induce
"CC(C)CC[C@@H](O)[C@@H](C)[C@H]1CC[C@H]2[C@@H]3CC=C4C[C@@H](O)CC[C@]4(C)[C@H]3CC[C@]12C [22R, 22(R)-hydroxycholesterol]",unable to induce,inhibited adipogenesis,
"CC(C)CCC[C@](C)(O)[C@H]1CC[C@H]2[C@@H]3CC=C4C[C@@H](O)CC[C@]4(C)[C@H]3CC[C@@]21C [20S, 20(S)-hydroxycholesterol]",unable to induce,inhibited adipogenesis,
